PMC10581841, “Rapid Separation of Asiatic Acid, Quercetin, and Kaempferol from Traditional Chinese Medicine Centella asiatica (L.) Urban Using HSCCC-Semi-Prep-HPLC and the Assessment of Their Potential as Fatty Acid Synthase Inhibitors” (International Journal of Analytical Chemistry, 2023)
Where two headings read alike, the source gives them in different places.

Target: T1, fatty acid synthetase (FAS) (Anas platyrhynchos, UniProt A0A0D3LZ43)
T1 construct: native enzyme purified from fresh duck liver
T1 sequence (A0A0D3LZ43 1-2514): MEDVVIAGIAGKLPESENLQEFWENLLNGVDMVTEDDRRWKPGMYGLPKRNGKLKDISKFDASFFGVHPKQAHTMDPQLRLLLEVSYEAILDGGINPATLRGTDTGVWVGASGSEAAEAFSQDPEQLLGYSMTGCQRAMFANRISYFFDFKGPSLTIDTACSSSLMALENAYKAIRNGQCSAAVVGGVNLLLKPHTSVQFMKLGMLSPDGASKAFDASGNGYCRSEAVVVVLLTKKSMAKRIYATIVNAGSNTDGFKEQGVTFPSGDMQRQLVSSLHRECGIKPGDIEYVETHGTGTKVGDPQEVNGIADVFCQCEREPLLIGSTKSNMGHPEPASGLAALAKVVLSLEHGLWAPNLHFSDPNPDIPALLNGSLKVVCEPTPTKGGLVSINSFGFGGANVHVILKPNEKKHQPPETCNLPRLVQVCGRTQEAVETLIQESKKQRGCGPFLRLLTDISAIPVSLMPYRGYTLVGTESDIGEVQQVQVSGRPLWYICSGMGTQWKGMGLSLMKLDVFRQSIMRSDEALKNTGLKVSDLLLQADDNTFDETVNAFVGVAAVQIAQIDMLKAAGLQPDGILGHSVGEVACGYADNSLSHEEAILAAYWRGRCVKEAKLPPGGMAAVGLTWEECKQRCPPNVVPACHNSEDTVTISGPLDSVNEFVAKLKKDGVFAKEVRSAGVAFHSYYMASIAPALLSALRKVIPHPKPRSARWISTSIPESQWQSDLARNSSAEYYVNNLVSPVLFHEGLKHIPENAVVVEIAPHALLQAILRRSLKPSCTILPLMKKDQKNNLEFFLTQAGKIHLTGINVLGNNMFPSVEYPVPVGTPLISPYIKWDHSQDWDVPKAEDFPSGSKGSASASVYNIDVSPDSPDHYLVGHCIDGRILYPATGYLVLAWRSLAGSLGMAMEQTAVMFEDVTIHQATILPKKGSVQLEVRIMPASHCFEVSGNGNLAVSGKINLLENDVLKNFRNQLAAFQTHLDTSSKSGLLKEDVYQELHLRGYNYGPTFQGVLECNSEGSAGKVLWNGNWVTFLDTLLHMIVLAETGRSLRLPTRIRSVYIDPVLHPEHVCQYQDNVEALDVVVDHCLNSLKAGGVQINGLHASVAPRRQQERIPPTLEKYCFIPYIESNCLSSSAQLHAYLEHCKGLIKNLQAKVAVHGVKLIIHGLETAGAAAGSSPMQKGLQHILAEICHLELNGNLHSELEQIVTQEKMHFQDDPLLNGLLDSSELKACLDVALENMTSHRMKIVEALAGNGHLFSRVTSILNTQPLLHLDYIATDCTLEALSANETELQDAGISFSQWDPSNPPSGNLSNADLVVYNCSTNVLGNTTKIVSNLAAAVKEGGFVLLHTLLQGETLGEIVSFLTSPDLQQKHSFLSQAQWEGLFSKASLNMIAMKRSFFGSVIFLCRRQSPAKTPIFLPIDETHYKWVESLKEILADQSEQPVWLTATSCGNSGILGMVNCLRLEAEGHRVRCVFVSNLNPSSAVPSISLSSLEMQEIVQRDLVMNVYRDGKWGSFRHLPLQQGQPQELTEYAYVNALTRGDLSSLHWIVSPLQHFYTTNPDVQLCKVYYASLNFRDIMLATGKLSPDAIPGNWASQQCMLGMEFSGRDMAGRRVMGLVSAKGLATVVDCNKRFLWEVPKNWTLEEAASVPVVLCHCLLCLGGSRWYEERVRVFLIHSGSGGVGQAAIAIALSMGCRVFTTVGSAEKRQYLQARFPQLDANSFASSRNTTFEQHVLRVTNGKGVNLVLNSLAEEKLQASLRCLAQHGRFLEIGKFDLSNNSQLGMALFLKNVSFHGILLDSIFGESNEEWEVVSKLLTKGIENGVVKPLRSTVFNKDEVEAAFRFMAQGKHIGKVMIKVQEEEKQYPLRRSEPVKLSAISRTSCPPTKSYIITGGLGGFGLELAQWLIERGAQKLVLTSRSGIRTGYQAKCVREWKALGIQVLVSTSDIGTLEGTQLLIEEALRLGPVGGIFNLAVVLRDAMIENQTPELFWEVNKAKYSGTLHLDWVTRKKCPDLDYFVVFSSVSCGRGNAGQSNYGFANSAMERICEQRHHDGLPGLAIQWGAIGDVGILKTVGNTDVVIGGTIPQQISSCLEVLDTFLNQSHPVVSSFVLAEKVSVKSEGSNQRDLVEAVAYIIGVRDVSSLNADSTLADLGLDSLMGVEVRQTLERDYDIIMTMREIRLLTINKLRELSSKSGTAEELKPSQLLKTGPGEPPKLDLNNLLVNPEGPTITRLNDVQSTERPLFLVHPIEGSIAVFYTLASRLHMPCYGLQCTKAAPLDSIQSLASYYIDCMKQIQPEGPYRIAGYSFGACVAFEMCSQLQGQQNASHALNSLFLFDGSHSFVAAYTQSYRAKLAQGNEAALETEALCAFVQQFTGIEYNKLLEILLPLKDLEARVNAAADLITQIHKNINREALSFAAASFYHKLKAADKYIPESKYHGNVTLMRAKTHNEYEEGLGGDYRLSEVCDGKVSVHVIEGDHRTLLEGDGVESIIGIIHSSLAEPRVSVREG
Experiment: UV spectrophotometric FAS activity assay at […] nm (NADPH)
Format: biochemical

[1] = read-out: IC50 (μg/mL) (converted)

Compound	IC50 [1]	IC50
C[C@H]1[C@H](C)CC[C@]2(C(=O)O)CC[C@]3(C)C(=CC[C@@H]4[C@@]5(C)C[C@@H](O)[C@H](O)[C@@](C)(CO)[C@@H]5CC[C@]43C)[C@H]12 [AA, asiatic acid]	19.5 µM	
O=c1c(O)c(-c2ccc(O)cc2)oc2cc(O)cc(O)c12 [KPL, kaempferol]	129 µM	
C[C@H]1[C@H](C)CC[C@]2(C(=O)O)CC[C@]3(C)C(=CC[C@@H]4[C@@]5(C)C[C@@H](O)[C@H](O)[C@@](C)(CO)[C@@H]5[C@H](O)C[C@]43C)[C@H]12 [MA, madecassic acid]		21.5 µM
O=c1c(O)c(-c2ccc(O)c(O)c2)oc2cc(O)cc(O)c12 [QCN, quercetin]		143 µM
